According to PMC1361622 (2006):

Test system: construct 1 (consensus-type glmS ribozyme, A6 and A58) (RNA, ribozyme) GGUAAAUUAUAAAAGCGCCAGAACUACAGAAAUGUAGUUGACGAGGAGGAGGUUUAUCGAAUUUUCGGCGGAUGCCUCC
Assay: half-maximal kobs of ligand-dependent self-cleavage
Settings: 20 mM Mg2+; 50 mM Tris-HCl pH 7.5, 23 °C; GlcN6P varied

apparent Kd: ~ 200 µM
Compound: N[C@H]1C(O)O[C@H](COP(=O)(O)O)[C@@H](O)[C@@H]1O (stereo partly shown)
